From patent publication US20120045459A1, “Methods for Treating Autophagy-Related Disorders” (Van Andel Research Institute, priority 2009, published 2012)

How the values were obtained:
[1] = test system: U2OS cells; experiment: Transmission electron microscopy of autophagic vesicles; format: cell-based, human; settings: compared with control cells in full nutrients
Experimental: Transmission electron microscopy (TEM). U2OS cells in 10-cm dishes were transfected with control or PTPRS siRNAs for 48 h. Cells were briefly trypsinized, pelleted, rinsed, and resuspended in 2% glutaraldehyde fixative. Cell pellets were embedded in 2% agarose, postfixed in osmium tetroxide, and dehydrated with an acetone series. […] Ultrathin sections (70 nm) were generated with a Power Tome XL (Boeckeler Instruments) and placed on copper grids. Cells were examined using a JEOL 100CX Transmission Electron Microscope at 100 kV. Autophagic structures were quantified from images encompassing approximately 8.5 μm2 of cell area each.

[2] = test system: U2OS cells; experiment: LC3B immunofluorescence of autophagic vesicles; format: cell-based, human; settings: full growth medium, 25 uM chloroquine, 1 hr
Experimental: Immunofluorescence and western blot analyses. U2OS cells were seeded at a density of 35,000 cells per well in McCoy's 5A medium supplemented with 10% FBS on number 1.5 coverglass in 24-well tissue culture plates (for immunofluorescence) or 150,000 cells per well on 6-well dishes (for western blot). After 24 h, siRNAs were transfected at a final concentration of 25 nM using 2 μl HiPerfect transfection reagents (Qiagen) per ml medium. Control siRNA was All-star negative control (Qiagen) and PTPRS siRNAs were two unique sequences (SI02759288, SI03056284, Qiagen). […] For western blots, cells were lysed (in 10 mM KPO4, 1 mM EDTA, 10 mM MgCl2, 5 mM EGTA, 50 mM bisglycerophosphate, 0.5% NP40, 0.1% Brij35, 0.1% sodium deoxycholate, 1 mM NaVO4, 5 mM NaF, 2 mM DTT, AEBSF, aprotinin, bestatin hydrochloride, E64, leupeptin, and pepstatin A and 20 μg of total protein was resolved by SDS-PAGE. Membranes were probed with primary antibodies (LC3B, Cell Signaling Technologies; α-tubulin, Sigma) for 16 h at 4° C. followed by secondary antibodies (HRP-linked anti-rabbit or anti-mouse IgG) for 1 h at room temperature. Proteins were detected by enhanced chemiluminescence. For immunofluorescence, cells were fixed with 3.7% formaldehyde, permeabilized with 0.2% Triton-X 100, and blocked with 3% bovine serum albumin (BSA) in PBS. […]

`CCN(CC)CCCC(C)Nc1ccnc2cc(Cl)ccc12` (centres unmarked) [chloroquine] was tested, and the “autophagic vesicles (AVs) by TEM” value [1] was “evident” and the “LC3-positive aggregates (AVs)” value [2] was “LC3-positive aggregates accumulate”.
